Measured values as given in article PMC5803236 (Scientific Reports, 2018).

Key:
[1] = target: T1, hemagglutinin (HA) of H1N1 A/Puerto Rico/8/1934 (Influenza A virus (A/Puerto Rico/8/1934(H1N1)), UniProt P03452); format: cell-based
T1 construct: native HA on whole virus (virus antigen, 4 HAU); not purified protein

[2] = target: hemagglutinin (HA) of H1N1 A/Korea/01/2009 (Pandemic) (Influenza A virus (A/Korea/01/2009(H1N1)), UniProt C5MQE6)

CC(=O)N[C@H]1[C@H]([C@H](O)[C@H](O)CO)O[C@@](OC[C@H]2O[C@@H](O[C@H]3[C@H](O)[C@@H](O)C(O)O[C@@H]3CO)[C@H](O)[C@@H](O)[C@H]2O)(C(=O)O)C[C@@H]1O (some centres unmarked) [6′-sialyllactose]
MIC [1]: > 200 mM
MIC [2]: > 200 mM
